Assay results: patent US4994468A, “Imidazoquinolone derivatives” (Kyowa Hakko Kogyo Co., Ltd., priority 1989, dated 1991)

Key:
[1] = test system: trachea strips of passively sensitized guinea pigs, antigen (EWA) induced contraction; test: Effects on passive Schultz-Dale reaction (broncho-dilatory effects); format: cell-based, guinea pig (Hartley male); details: Cavia porcellus; concentration of 50% relaxation; sensitized guinea pig trachea, antigen EWA 1 μg/ml, cumulative addition, 37° C.
Experimental: (a) Effects on passive Schultz-Dale reaction (broncho-dilatory effects). Guinea pigs were passively sensitized as follows. Hartley male guinea pigs weighing 350 to 500 g were injected intraperitoneally with rabbit anti-egg albumin (EWA) serum prepared by the method of Eda et al. [Folia pharmacol., Japon 66, 237, (1970)]. After 24 hours, the guinea pigs were stunned and exsanguinated, and then trachea was excised. The zig-zag strips of the […] prepared by the method of Emmerson and Mackay [J. Pharm. Pharmacol., 31, 798, (1979)]. The strips were suspended in Krebs-Henseleit solution at 37° C. under aeration of a mixed gas of 95% oxygen and 5% carbon dioxide, and incubated for one hour. Antigen (EWA) was then introduced in the solution (final concentration; 1 μg/ml), and the contraction was measured by isotonictrasducer (TD-112s, made by Nihon Kohden K.K., Japan) and recorded on a recorder (Type 3066, made by Yokogawa-Hokushin Denki, K.K. Japan). After the contraction curves reached plateau, the compounds were successively added in order to get cumulative concentration-relaxation curves.

[2] = test system: passive cutaneous anaphylaxis (PCA); test: Antiallergic effects: 48 hour-homologous passive cutaneous anaphylaxis (PCA) test in rats; format: in vivo, rat (Wistar male); details: Rattus norvegicus; minimum effective dosage: suppression rate 50% or higher in at least one of three rats; oral, 1 hour before PCA challenge; read-out: Anti-allergic effect (MED)
Experimental: Antiallergic effects of compounds were assessed by passive cutaneous anaphylaxis (PCA) test in rats. Wistar male rats weighing 180 to 220 g were used for collection of antiserum and Wistar male rats weighing 120 to 140 g for PCA test.
(i) Preparation of anti EWA serum in rat
Anti-EWA rat serum was prepared by the method of Stotland and Share [Can. J. Physiol. Pharmacol., 52, 1114, (1974)] as follows. That is, 1 mg of EWA, 20 mg of aluminium hydroxide gel and 0.5 ml of mixed vaccine of pertussis, diphtheria and tetanus were mixed, and the mixture was subcutaneously injected in 4 portions into the foot part of the rats. After 14 days, the blood of sensitized rats was collected from carotid artery. The serum was separated by centrifugation from collected blood, and kept at -80° C. Titer of the 48 hour homologous PCA tests of the serum was 1:32.
(ii) Effects on 48 hour-homologous PCA tests in rats
Groups each consisting of three male rats were used, and 0.05 ml of anti-EWA serum diluted to 8 times with a physiological saline, was sensitized passively by giving intradermal injection at two depilated points on the dorsum. After 47 hours, the test compound or its solvent (saline or CMC solution) was orally administrated, and 1 hour thereafter, PCA reaction was induced by intravenous administration of 1% Evan's blue-saline (0.5 ml/100 g) containing 2 mg of […]. After 30 minutes, animals were sacrificed by bleeding and dorsal skin was stripped to determin the extravasated dye at blue-dyed reaction site, by the method of Katayama et al. [Microbiol. Immunol., 22, 89 (1978)]. The blue-dyed spots were scissored out and placed in a test tube containing 1 ml of 1N sodium hydroxide and incubated at 37° C. for 24 hours. 9 ml of a mixture of 0.6N phosphate:acetone (5:13) was added thereto. After shaking, the mixture was centrifuged at 2500 rpm for 10 minutes. A supernatant was separated, and extravasated dye in the supernatant was quantified by measuring absorbance of the supernatant at 620 nm. Prepared calibration curve was used for the quantification. An average of measurements at the two positions was made a value for one animal, and suppression rate of the one animal was calculated by following equation: [formula]

[3] = Acute toxicity; details: mouse, in vivo; po, mortality for seven days, male dd-mice
Experimental: The compounds were orally administrated (po: 300 mg/kg) to male dd-mice weighing 20 to 25 g. LD50 was determined by observing the mortality for seven days after the administration.

[4] = test system: experimental asthma in passively sensitized guinea pigs; test: Effects on experimental asthma; format: in vivo, guinea pig (Hartley male); details: 50 mg/kg orally, one hour before aerosol antigen 1.5% EWA; mean + SEM of 5 or 10 animals; control 254 ± 18
Experimental: (c) Effects on experimental asthma Guinea pigs were passively sensitized as follows. Hartley male guinea pigs weighing 350 to 500 g were intraperitoneally injected with 1 ml of rabbit EWA serum prepared by the method of Eda et al. [Folia pharmacol., Japon, 66, 237 (1970)]. The animals were treated with intraperitoneal injection of diphenhydramine (20 mg/kg) and propranolol (5 mg/kg), 30 minutes before administration of test compounds. 17 hours after the sensitization, the test compounds (50 mg/kg) were orally administrated to sensitized animals. After one hour from the administration of the test compounds, the guinea pigs were placed in plastic observation box and were exposed to an aerosal antigen of 1.5% EWA. The time until the onset of respiratory […] symptom [collapse time (second)] was measured as a result of experimental asthma.

| Compound | IC50 [1] [µM] | minimal effective dose [2] [mg/kg] | LD50 at 168 h [3] [mg/kg] | Experimental asthma (collapse time) [4] [s] |
| --- | --- | --- | --- | --- |
| CCCCn1c(=O)c2ncn(C)c2c2ccc(Cl)cc21.Cl [Compound 24W, 5-n-Butyl-7-chloro-1-methyl-1H,5H-imidazo[4,5-c]quinolin-4-one hydrochloride] | 0.9 | > 100 | > 300 | – |
| Cn1c(=O)c2[nH]cnc2n(C)c1=O [Theophylline, reference compound] | – | – | – | 414 ± 47 |
| CCCCn1c(=O)c2ncn(CCC)c2c2ccccc21.Cl [Compound 17W, 5-n-Butyl-1-n-propyl-1H,5H-imidazo[4,5-c]quinolin-4-one hydrochloride] | 2.4 | > 100 | > 300 | 484 ± 31 |
| CC(C)C(=O)c1c(C(C)C)nn2ccccc12 [KC 404, reference compound] | 0.86 | > 100 | – | – |
| CCCCn1c(=O)c2nnn(C)c2c2ccccc21 [Compound 32, 5-n-Butyl-1-methyl-1H,5H-triazolo[4,5-c]quinolin-4-one] | 1.6 | > 100 | > 300 | – |
| Cn1cnc2c(=O)n(CC(=O)O)c3ccccc3c21 [Compound 9, 5-Carboxymethyl-1-methyl-1H,5H-imidazo[4,5-c]quinolin-4-one] | > 20 | > 100 | > 300 | 532 ± 31 |
| CCCCn1c(=O)c2nc(S)n(C)c2c2ccccc21 [Compound 31, 5-n-Butyl-1-methyl-2-mercapto-1H,5H-imidazo[4,5-c] quinolin-4-one] | 9.6 | > 100 | > 300 | 284 ± 48 |
| CCCCn1cnc2c(=O)n(CCCC)c3ccccc3c21.Cl [Compound 19W, 1,5-Di-n-butyl-1H,5H-imidazo[4,5-c]quinolin-4-one hydrochloride] | 6.4 | > 100 | > 300 | 503 ± 44 |
| CCCCn1c(=O)c2ncn(CC)c2c2ccccc21.Cl [Compound 16W, 5-n-Butyl-1-ethyl-1H,5H-imidazo[4,5-c]quinolin-4-one hydrochloride] | 4.1 | > 100 | > 300 | 422 ± 43 |
| CCCCn1c(=O)c2ncn(C)c2c2cc(C)ccc21 [Compound 26, 5-n-Butyl-1,8-dimethyl-1H,5H-imidazo[4,5-c]quinolin-4-one] | 9.8 | 100 | > 300 | – |
| CCCCn1c(=O)c2nc[nH]c2c2ccccc21 [Compound 8, 5-n-Butyl-1H,5H-imidazo[4,5-c]quinolin-4-one] | > 20 | > 100 | > 300 | – |
| CCCCn1c(=O)c2ncn(C)c2c2ccccc21 [Compound 1, 5-n-Butyl-1-methyl-1H,5H-imidazo[4,5-c]quinolin-4-one] | 0.0034 | < 10 | > 300 | 517 ± 37 |
| CCCCn1c(=O)c2ncn(C(C)C)c2c2ccccc21.Cl [Compound 18W, 5-n-Butyl-1-isopropyl-1H,5H-imidazo[4,5-c]quinolin-4-one hydrochloride] | 1.5 | > 100 | > 300 | 425 ± 50 |
| CCCCn1c(=O)c2ncn(C)c2c2c(C)cccc21.Cl [Compound 27W, 5-n-Butyl-1,9-dimethyl-1H,5H-imidazo[4,5-c]quinolin-4-one hydrochloride] | > 20 | 100 | > 300 | – |
| CCCn1c(=O)c2ncn(C)c2c2ccccc21 [Compound 6, 1-Methyl-5-n-propyl-1H,5H-imidazo[4,5-c]quinolin-4-one] | < 20 | < 10 | > 200 | 600 ± 0 |
| CCn1c(=O)c2ncn(C)c2c2ccccc21 [Compound 5, 5-Ethyl-1-methyl-1H,5H-imidazo[4,5-c]quinolin-4-one] | > 20 | < 10 | > 100 | 519 ± 78 |
| Cn1cnc2c(=O)n(Cc3ccco3)c3ccccc3c21 [Compound 3, 5-Furfuryl-1-methyl-1H,5H-imidazo[4,5-c]quinolin-4-one] | > 20 | > 100 | > 300 | – |
| CCCn1c(=O)[nH]c(=O)c2[nH]cnc21 [Enprofylline, reference compound] | 10 | ≤ 100 | – | – |
| CCCCn1c(=O)c2ncn(Cc3ccccc3)c2c2ccccc21 [Compound 7, 1-Benzyl-5-n-butyl-1H,5H-imidazo[4,5-c]quinolin-4-one] | > 20 | > 100 | > 300 | – |
| Cn1cnc2c(=O)n(C)c3ccccc3c21 [Compound 4, 1,5-Dimethyl-1H,5H-imidazo[4,5-c]quinolin-4-one] | > 20 | > 10 | > 200 | – |
